# Values quoted from earlier work, collected in patent US20230112273A1, “Process for Producing an Aroma-Laden Gas, Aroma-Laden Gas, and Use of the Aroma-Laden Gas” (Döhler GmbH, priority 2020, published 2023).
# Settings: listed beside the composition of the aromatic substances in the laden solid phase (beer, Exemplary Embodiment 1)
row,Log P,SMILES
1,3.96,CCCCCCCCCC(=O)O [decanoic acid]
2,0.69,CC(C)CO [isobutanol]
3,2.12,CC(=O)OCCC(C)C [3-methylbutyl acetate]
4,1.84,CCCCCC(=O)O [hexanoic acid]
5,3.9,CCCCCCCC(=O)OCC [octanoic acid ethyl ester]
6,1.22,CC(C)CCO [3-methyl-1-butanol]

row,SMILES,Log P
1,CCC(C)CO (stereo not shown) [2-methyl-1-butanol],1.22
